Measurements published in article PMC5412352 (International Journal of Molecular Sciences, 2017).
Like-named read-outs stand apart in the source and are kept apart here.

Legend:
[1] = biological target: T1, hGhrR (COS7 cells stably transfected with hGhrR) (Homo sapiens, UniProt Q92847); assay: Inositol phosphate accumulation assay, antagonistic potency with 10^-8 M ghrelin; type: cell-based; conditions: for Emax: COS-7, read-out: Emax (antagonistic efficacy)
T1 construct: expressed in transfected cells
T1 sequence (Q92847 whole entry): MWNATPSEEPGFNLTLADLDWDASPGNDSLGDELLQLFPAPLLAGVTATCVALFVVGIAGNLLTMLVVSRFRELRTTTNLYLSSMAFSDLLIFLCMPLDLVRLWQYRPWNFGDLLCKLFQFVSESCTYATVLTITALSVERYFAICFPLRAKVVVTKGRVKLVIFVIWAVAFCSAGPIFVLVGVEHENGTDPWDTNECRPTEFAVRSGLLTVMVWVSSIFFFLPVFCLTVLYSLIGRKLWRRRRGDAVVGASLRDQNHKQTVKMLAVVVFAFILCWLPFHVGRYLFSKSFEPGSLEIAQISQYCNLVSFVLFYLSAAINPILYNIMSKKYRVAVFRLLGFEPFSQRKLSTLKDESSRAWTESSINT
Procedure: Antagonistic properties at the hGhrR
antagonistic potency in an inositol phosphate accumulation assay (Table S1). The receptor was
Table S1. Inositol phosphate accumulation assay to determine antagonistic potencies of candidate
Compounds were analyzed by inositol phosphate accumulation in COS7 cells stably

[2] = HPLC-based chromatographic hydrophobicity index on immobilized artificial membranes (CHI IAM); type: physicochemical; conditions: IAM PC DD2 column, acetonitrile / 50 mM ammonium acetate gradient
Description: Physicochemical properties of a drug such as lipophilicity and non-specific binding to membranes and plasma proteins are crucial parameters of a potential radiotracer, in particular if it is supposed to pass the blood brain barrier (BBB). The lipophilicity (logD7.4) was estimated using the commercially available ACD/Labs-12.5 software and the non-specific binding was estimated by the high-performance liquid chromatography (HPLC)-based hydrophobicity index at immobilized artificial membranes (CHI IAM) for seven fluorine substituted candidate molecules and (S)-13 without fluorine (Table 3).
The chromatographic hydrophobicity index on immobilized artificial membranes (CHI IAM) was experimentally determined by a HPLC method described by Valko and co-workers using a IAM PC DD2 column (100 × 4.6 mm, […], Regis Technologies, IL, USA), a gradient of acetonitrile, and 50 mM ammonium acetate as eluent and acetanilide, acetophenone, 1,4-dinitrobenzene, anisole propiophenone, valerophenone, and octanophenone as references.

[3] = biological target: hGhrR (COS7 cells stably expressing hGhrR-eYFP) (Homo sapiens, UniProt Q92847); assay: cell-based; conditions: for Emax: COS-7, mean ± SEM, refers to ghrelin Emax as 100%, 0% = constitutive receptor activity
Sequence of hGhrR (COS7 cells stably expressing hGhrR-eYFP) (Q92847 whole entry): as above
Procedure: For that purpose, the inositol phosphate accumulation assay was used [43, 44].
Briefly, 60,000 to 80,000 cells/well of COS7 cells, stably expressing the fusion protein hGhrR-eYFP, were seeded in 48-well plates in Dulbecco’s modified Eagle’s medium (DMEM) with 10% fetal calf serum (FCS) and 0.4 mg/mL hygromycin B. The next day, the cells were labeled with [2-^3H]-myo-inositol (2 µCi/mL, PerkinElmer). […] Cell debris was removed and the supernatant purified on an anion-exchange resin (BioRad, Hercules, CA, USA). The obtained data were analyzed with GraphPad Prism 5.0 (GraphPad Software, San Diego, CA, USA). […] EC50/IC50 values were calculated from at least three independent experiments. Emax is defined as the difference between maximal and minimal effect in presence of the compound.

[4] = biological target: human GhrR (hGhrR-eYFP, HEK293 cell membranes) (Homo sapiens, UniProt Q92847); assay: Competitive radioligand binding assay with [125I-His9]ghrelin at hGhrR membranes; conditions: for fold higher IC50 than (S)-9: hGhrR binding IC50 relative to starting compound (S)-9
Sequence of human GhrR (hGhrR-eYFP, HEK293 cell membranes) (Q92847 whole entry): as above
Procedure: Each concentration was tested in duplicate. The membrane-bound radioligand was trapped on a Filtermat B (PerkinElmer) pre-soaked with 0.1% polyethylenimine in H2O by using a filtermat harvester (PerkinElmer). After drying for 20 min at 55 °C, a Meltilex scintillation sheet (PerkinElmer) was melted onto the filtermat and the samples were counted in a Microbeta scintillation counter (PerkinElmer).

human α3β4 nAChR = biological target: T2, human α3β4 nAChR (Homo sapiens, UniProt P30926+P32297); assay: Selectivity radioligand displacement, [3H]epibatidine, transfected HEK cells; type: binding; conditions: read-out: Ki at α3β4 nAChRs
T2 construct: expressed in transfected cells; host or cells: HEK cells (by courtesy of Dominik Feuerbach, Novartis), homogenate
T2 sequence (P32297 32-505): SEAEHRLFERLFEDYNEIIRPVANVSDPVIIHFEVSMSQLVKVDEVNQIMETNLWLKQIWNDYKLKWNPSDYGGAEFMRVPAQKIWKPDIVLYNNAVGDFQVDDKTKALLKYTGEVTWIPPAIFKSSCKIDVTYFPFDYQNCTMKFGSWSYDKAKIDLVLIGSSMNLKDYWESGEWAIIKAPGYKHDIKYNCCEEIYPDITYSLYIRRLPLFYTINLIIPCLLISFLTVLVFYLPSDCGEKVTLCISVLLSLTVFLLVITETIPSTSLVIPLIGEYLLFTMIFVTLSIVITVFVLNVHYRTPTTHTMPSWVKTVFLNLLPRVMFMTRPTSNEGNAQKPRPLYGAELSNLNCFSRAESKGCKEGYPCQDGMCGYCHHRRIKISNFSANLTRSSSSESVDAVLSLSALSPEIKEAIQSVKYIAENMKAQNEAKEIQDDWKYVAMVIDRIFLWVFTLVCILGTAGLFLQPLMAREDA
T2 sequence (P30926 22-498): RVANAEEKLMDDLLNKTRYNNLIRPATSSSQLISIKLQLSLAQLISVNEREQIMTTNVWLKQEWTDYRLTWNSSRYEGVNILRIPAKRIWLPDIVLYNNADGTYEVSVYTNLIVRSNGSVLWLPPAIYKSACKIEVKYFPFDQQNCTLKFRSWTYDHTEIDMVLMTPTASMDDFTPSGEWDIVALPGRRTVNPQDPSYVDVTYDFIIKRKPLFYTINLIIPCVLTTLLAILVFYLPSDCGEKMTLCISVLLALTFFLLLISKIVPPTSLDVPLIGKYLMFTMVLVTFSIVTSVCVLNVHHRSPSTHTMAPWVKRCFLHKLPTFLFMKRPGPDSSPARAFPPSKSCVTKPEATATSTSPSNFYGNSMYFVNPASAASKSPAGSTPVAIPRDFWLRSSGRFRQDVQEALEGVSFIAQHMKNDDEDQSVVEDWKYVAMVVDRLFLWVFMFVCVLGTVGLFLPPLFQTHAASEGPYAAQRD
Procedure: […]
(§1) The incubations were terminated by rapid filtration via glass-fiber filters presoaked in PEI (0.3%, 60 min at rt), and the filter-bound radioactivity was counted by liquid scintillation counting (Tricarb, PerkinElmer).

rat σ2 receptor = biological target: T3, rat σ2 receptor (Rattus norvegicus, UniProt Q5U3Y7); assay: Selectivity radioligand displacement, [3H]DTG, rat liver homogenate; type: binding; conditions: [3H]DTG + 1 µM dextrallorphan
T3 construct: rat σ2 receptor = rat liver homogenate; from tissue; host or cells: rat liver homogenate
T3 sequence (Q5U3Y7 1-176): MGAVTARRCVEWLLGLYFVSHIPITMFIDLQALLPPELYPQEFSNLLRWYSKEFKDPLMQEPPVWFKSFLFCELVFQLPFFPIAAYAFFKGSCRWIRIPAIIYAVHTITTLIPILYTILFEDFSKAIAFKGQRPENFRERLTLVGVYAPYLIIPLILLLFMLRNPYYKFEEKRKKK
Procedure: […]
as §1

[5] = 5 min pre-stimulation with compound, then 10^-8 M ghrelin, read-out: IC50 (antagonistic potency)
[6] = pEC50, mean ± SEM, 2 h stimulation in absence of ghrelin
[7] = EC50, 2 h stimulation in absence of ghrelin, COS7-hGhrR

Row | Compound | IC50 [1, 5] [nM] | Emax [1] [%] | CHI IAM [2] | Emax [3] [%] | EC50 [3, 6] [nM] | IC50 [4] [nM] | fold higher IC50 than (S)-9 [4] | IC50 ([1]; mean ± SEM, with 10^-8 M ghrelin, read-out: pIC50 (antagonistic potency) (converted)) [nM] | EC50 [3, 7] [nM] | Ki (human α3β4 nAChR) [nM] | Ki (rat σ2 receptor) [nM]
1 | Cc1nc2ccc(Oc3ccc(Br)cc3F)nc2c(=O)n1C[C@H]1CCCN(CCF)C1 [(S)-10, (S)-6-(4-Bromo-2-fluorophenoxy)-3-((1-(2-fluoroethyl)piperidin-3-yl)methyl)-2-methylpyrido[3,2-d]pyrimidin-4(3H)-one] | 345 | 22 ± 4 | 39.6 | ~60 | 1.58 | 69 | about 30 fold |  |  |  | 
2 | CC(C)N1CCC[C@H](Cn2cnc3ccc(Oc4ccc(Br)cc4F)nc3c2=O)C1 [(S)-16, (S)-6-(4-Bromo-2-fluorophenoxy)-3-((1-isopropylpiperidin-3-yl)methyl)pyrido[3,2-d]pyrimidin-4(3H)-one] | 28.7 | 65 ± 5 | 42.3 | 40 ± 4 | 1.02 | 2.69 |  |  |  |  | 
3 | Cc1nc2ccc(Oc3ccc(Br)cc3F)nc2c(=O)n1C[C@H]1CCCN(C(C)CF)C1 (stereo partly drawn) [(S)-13, 6-(4-Bromo-2-fluorophenoxy)-3-(((3S)-1-(1-fluoropropan-2-yl)piperidin-3-yl)methyl)-2-methylpyrido[3,2-d]pyrimidin-4(3H)-one] | 207 | 31 ± 5 | 42.8 | ~60 | 1.35 | 12.6 |  | 204 | 1.4 |  | 
4 | Cc1nc2ccc(Oc3ccc(Br)cc3F)nc2c(=O)n1C[C@H]1CCCN(CCCF)C1 [(S)-11, (S)-6-(4-Bromo-2-fluorophenoxy)-3-((1-(3-fluoropropyl)piperidin-3-yl)methyl)-2-methylpyrido[3,2-d]pyrimidin-4(3H)-one] | 349 | 56 ± 10 | 42.2 | ~60 | 2.88 | 66 | about 30 fold |  |  | 27 ± 8 | 
5 | Cc1nc2ccc(Oc3ccc(Br)cc3F)nc2c(=O)n1C[C@H]1CCCN(CCCCF)C1 [(S)-12, (S)-6-(4-Bromo-2-fluorophenoxy)-3-((1-(4-fluorobutyl)piperidin-3-yl)methyl)-2-methylpyrido[3,2-d]pyrimidin-4(3H)-one] |  |  | 43.3 |  |  | 574 |  |  |  | 64 ± 14 | 
6 | Cc1nc2ccc(Oc3ccc(Br)cc3)nc2c(=O)n1C[C@H]1CCCN(C(C)C)C1 [(S)-14] | 123 | 57 ± 6 | 42.8 | 42 ± 4 | 2.14 | 12.3 |  |  |  |  | 
7 | CC(C)N1CCC[C@H](Cn2c(F)nc3ccc(Oc4ccc(Br)cc4F)nc3c2=O)C1 [(S)-17, (S)-6-(4-Bromo-2-fluorophenoxy)-2-fluoro-3-((1-isopropylpiperidin-3-yl)methyl)pyrido[3,2-d]pyrimidin-4(3H)-one] |  |  |  |  |  | 151 |  |  |  |  | 
8 | Cc1nc2ccc(Oc3ccc(Br)cc3F)nc2c(=O)n1C[C@@H]1CCCN(C(C)C)C1 [(R)-9, (R)-6-(4-Bromo-2-fluorophenoxy)-3-((1-isopropylpiperidin-3-yl)methyl)-2-methylpyrido[3,2-d]pyrimidin-4(3H)-one] | 17.5 | 45 ± 5 | 42.8 | ~60 | 0.55 | 3.89 |  |  | 0.6 |  | 53 ± 7
